Source: article PMC10667265 (Scientific Reports, 2023)
Like-named read-outs stand apart in the source and are kept apart here. Where no end group is shown, it is not given here.

Legend:
[1] = infiltrated into the abaxial side of leaves of potato plants; methanolic extracts of leaf disks; conditions: potato (Solanum tuberosum cv. Désirée), 20 °C, up to 8 h
[2] = for amidated StPIP1_1 remaining: two independent experiments, n = 16 (Fig. 6A)
[3] = exogenous application to leaves; cited from earlier work
Text: In Arabidopsis, PIPs are encoded by 11 genes. […] Recently, the PAMP-induced peptides StPIP1 to StPIP4 were described in potato (Solanum tuberosum[23]).

potato = conditions: used as control for Pep-13; cited from earlier work
Experimental: Potato plants (Solanum tuberosum cv. Désirée) were cultivated in sterile tissue culture in a phytochamber (16 h light, ~ 140 µE, 22 °C). Plants were transferred to steam-sterilized soil and grown for 4 weeks under long day conditions in a phytochamber (16 h light, ~ 140 µE, 60% humidity, 20 °C). PAMP treatment was performed with leaf disks that were cut out from 4-week-old potato plants with a biopsy puncher (4 mm diameter) and placed with the abaxial side onto the surface of 250 µl of water in a 96-well plate. The plate was incubated overnight at 22 °C in the dark. Water from the wells was re ...

RLPSGPSPRGPGH-NH2
cleaved bond [1]: H-NH2, within minutes

RLPSGPSPRGPGH-NH2 [StPIP1_1]
amidated StPIP1_1 remaining ([2]; 100 µM amidated peptide infiltrated into leaves of phytochamber-grown potato plants, 30 min after infiltration, methanolic leaf extracts, LC-MS): 20%
amidated StPIP1_1 remaining ([2]; 100 µM amidated peptide infiltrated into potato leaves, 1 h after infiltration, LC-MS): 10%

TLGGIKAGPSPGEGHKVVNSHHQ [StPIP1]
ROS production [3]: does not induce
increases in the cytosolic Ca2+ concentrations [3]: does not induce

VANQPVRGFKVYE [W2A]
elicitor activity relative to Pep-13 (potato): nearly inactive

VWNQPVRGFKVYE [acidic form of Pep-13]
time within which the acidic form was degraded ([2]; after infiltration of 100 µM amidated Pep-13 into potato leaves, LC-MS (Fig. 6D)): ≤ 1 h

VWNQPVRGFKVYE-NH2
cleaved bond [1]: E-NH2, within 30 min

VWNQPVRGFKVYE-NH2 [Pep-13, reference compound]
time within which the amidated peptide was converted to the acidic form ([2]; 100 µM amidated Pep-13 infiltrated into potato leaves, LC-MS, two independent experiments (Fig. 6C)): ≤ 30 min
